Data: US20250288571A1 (Nested Therapeutics, Inc., priority 2024, published 2025)
Like-named read-outs stand apart in the source and are kept apart here.

Legend:
IPC298 cells = experiment: IPC298 Cell Titer Glow assay (CTG); conditions: Homo sapiens, IPC-298, 72 h; for IC50: read-out: CTG IC50 (nM) Cell Line: IPC298.2
HCT116 cells = experiment: HCT116 Cell Titer Glow assay (CTG); conditions: Homo sapiens, HCT-116, 72 h; for IC50: read-out: CTG IC50 (nM) Cell Line: HCT116.20
Protocol: HCT116 and IPC298 Cell Titer Glow Assay (CTG)
HCT116 cells and IPC298 cells were diluted with culture medium to the desired density 500 cells/well and 40 μL of cell suspension were added into each well of 384-well cell culture plate. […] The plates were covered and stored at room temperature for 30 minutes without shaking and then the plates were transferred into a 37° C. 5% CO2 incubator overnight.
A 10 mM solution in dimethyl sulfoxide (DMSO) was prepared for each test compound. A 3 fold, 10-point dilution was prepared from the stock solution. 40 nl of each solution in 100% DMSO was added to the 384-well plate and diluted to a final 0.1% DMSO final concentration. The plates were then incubated for 72 hours (for both cell lines) at 37° C.
CellTiter-Glo® 2.0 Reagent (Promega, G9242) was removed from the refrigerator and equilibrated at room temperature (23° C.) for 60 minutes. The plates were then removed from the incubator and allowed to equilibrate to room temperature. 30 μL CellTiter-Glo® 2.0 Reagent were added to the assay plates, and spun 1 min/1000 rpm. The plates were allowed to stand for about 20 minutes before being read on Envision using a standard luminescence readout. DMSO was employed as negative control (High control, HC) and 1 uM Staurosporine was employed as positive control (Low control, LC).
The percent (%) inhibition at each concentration of compound was calculated based on the signal in the negative and positive control wells contained within each assay plate.

[1] = read-out: CTG % cell viability 1000 uM HCT116.20, HCT116 cells, 72 hours, 1000 uM, percent cells remaining after treatment
[2] = read-out: CTG % cell viability 100 uM IPC298.2, IPC298 cells, 72 hours, 100 uM, percent cells remaining after treatment

## CNS(=O)(=O)Nc1nccc(Cc2cncc(Nc3ccc(OC(F)F)cn3)c2C)c1F [Example 66, 4-[[5-[[5-(difluoromethoxy)-2-pyridyl]amino]-4-methyl-3-pyridyl]methyl]-3-fluoro-N-(methylsulfamoyl)pyridin-2-amine]
IPC298 cells
  IC50: < 10 nM
HCT116 cells
  IC50: 10 to 100 nM

## CNS(=O)(=O)Nc1nccc(Cc2cncc(Nc3ccc(Cl)cc3F)c2Cl)c1F [Example 67, 4-chloro-N-(4-chloro-2-fluorophenyl)-5-({3-fluoro-2-[(methylsulfamoyl)amino]pyridin-4-yl}methyl)pyridin-3-amine]
IPC298 cells
  IC50: < 10 nM
HCT116 cells
  IC50: 10 to 100 nM

## C=CCNc1cncc(Cc2ccnc(NS(=O)(=O)NC)c2F)c1C [Example 68, 4-[[5-(allylamino)-4-methyl-3-pyridyl]methyl]-3-fluoro-N-(methylsulfamoyl)pyridin-2-amine]
IPC298 cells
  IC50: > 1000 nM
HCT116 cells
  IC50: 500 to 1000 nM

## CNS(=O)(=O)Nc1nccc(Cc2cncc(Nc3ccc(OC(F)(F)F)cn3)c2C)c1F [Example 69, 3-fluoro-N-(methylsulfamoyl)-4-[[4-methyl-5-[[5-(trifluoromethoxy)-2-pyridyl]amino]-3-pyridyl]methyl]pyridin-2-amine]
IPC298 cells
  IC50: 10 to 100 nM
HCT116 cells; [1]
  viability at 1000 µM: 60.4%
HCT116 cells
  IC50: > 1000 nM

## CNS(=O)(=O)Nc1nccc(Cc2cccc(Nc3ccc(Cl)cc3F)c2C)c1F [Example 70, 4-[[3-(4-chloro-2-fluoro-anilino)-2-methyl-phenyl]methyl]-3-fluoro-N-(methylsulfamoyl)pyridin-2-amine]
IPC298 cells
  IC50: 10 to 100 nM
HCT116 cells; [1]
  viability at 1000 µM: 50.2%
HCT116 cells
  IC50: > 1000 nM

## CNS(=O)(=O)Nc1nccc(Cc2cncc(Oc3ccc(SC)cc3)c2C)c1F [Example 71, {[3-fluoro-4-({4-methyl-5-[4-(methylsulfanyl)phenoxy]pyridin-3-yl}methyl)pyridin-2-yl]sulfamoyl}(methyl)amine]
IPC298 cells
  IC50: < 10 nM
HCT116 cells
  IC50: < 10 nM

## CNS(=O)(=O)Nc1nccc(Cc2cncc(Oc3ccc(S(C)(=O)=O)cc3)c2C)c1F [Example 72, [(3-fluoro-4-{[5-(4-methanesulfonylphenoxy)-4-methylpyridin-3-yl]methyl}pyridin-2-yl)sulfamoyl](methyl)amine]
IPC298 cells
  IC50: 10 to 100 nM
HCT116 cells
  IC50: 500 to 1000 nM

## CNS(=O)(=O)Nc1nccc(Cc2cncc(OC3CCC(C)(C)CC3)c2C)c1F [Example 73, 4-[[5-(4,4-dimethylcyclohexoxy)-4-methyl-3-pyridyl]methyl]-3-fluoro-N-(methylsulfamoyl)pyridin-2-amine]
IPC298 cells; [2]
  viability at 100 µM: 80.8%
IPC298 cells
  IC50: > 1000 nM
HCT116 cells; [1]
  viability at 1000 µM: 75.4%
HCT116 cells
  IC50: > 1000 nM

## CC#CCOc1cncc(Cc2ccnc(NS(=O)(=O)NC)c2F)c1C [Example 75, 4-[(5-but-2-ynoxy-4-methyl-3-pyridyl)methyl]-3-fluoro-N-(methylsulfamoyl)pyridin-2-amine]
IPC298 cells; [2]
  viability at 100 µM: 87.5%
IPC298 cells
  IC50: > 1000 nM
HCT116 cells; [1]
  viability at 1000 µM: 89.1%
HCT116 cells
  IC50: > 1000 nM

## CNS(=O)(=O)Nc1nccc(Cc2cncc(Oc3ccc(Cl)cc3C)c2C)c1F [Example 76, 4-[[5-(4-chloro-2-methyl-phenoxy)-4-methyl-3-pyridyl]methyl]-3-fluoro-N-(methylsulfamoyl)pyridin-2-amine]
IPC298 cells
  IC50: < 10 nM
HCT116 cells
  IC50: 100 to 500 nM

## CNS(=O)(=O)Nc1nccc(Oc2cncc(Oc3ccc(Cl)cc3)c2C)c1F [Example 77, 4-[[5-(4-chlorophenoxy)-4-methyl-3-pyridyl]oxy]-3-fluoro-N-(methylsulfamoyl)pyridin-2-amine]
IPC298 cells
  IC50: < 10 nM
HCT116 cells
  IC50: 100 to 500 nM

## CNS(=O)(=O)Nc1nccc(Cc2cncc(Sc3ccc(Cl)cc3)c2C)c1F [Example 78, {[4-({5-[(4-chlorophenyl)sulfanyl]-4-methylpyridin-3-yl}methyl)-3-fluoropyridin-2-yl]sulfamoyl}(methyl)amine]
IPC298 cells
  IC50: < 10 nM
HCT116 cells
  IC50: 100 to 500 nM

## CNS(=O)(=O)Nc1nccc(Oc2cncc(Nc3ccc(C)cc3F)c2C)c1F [Example 79]
IPC298 cells
  IC50: < 10 nM
HCT116 cells
  IC50: < 10 nM

## CCc1ccc(Nc2cncc(Oc3ccnc(NS(=O)(=O)NC)c3F)c2C)c(F)c1 [Example 80, N-(4-ethyl-2-fluorophenyl)-5-({3-fluoro-2-[(methylsulfamoyl)amino]pyridin-4-yl}oxy)-4-methylpyridin-3-amine]
IPC298 cells
  IC50: < 10 nM
HCT116 cells
  IC50: < 10 nM

## CCNS(=O)(=O)Nc1nccc(Cc2cncc(Oc3ccc(Cl)cc3F)c2C)c1F [Example 81, 4-[[5-(4-chloro-2-fluoro-phenoxy)-4-methyl-3-pyridyl]methyl]-N-(ethylsulfamoyl)-3-fluoro-pyridin-2-amine]
IPC298 cells
  IC50: < 10 nM
HCT116 cells
  IC50: 100 to 500 nM

## CNS(=O)(=O)Nc1nccc(Cc2cncc(OCc3ccc(Cl)cc3)c2C)c1F [Example 82, 4-[[5-[(4-chlorophenyl)methoxy]-4-methyl-3-pyridyl]methyl]-3-fluoro-N-(methylsulfamoyl)pyridin-2-amine]
IPC298 cells; [2]
  viability at 100 µM: 56%
IPC298 cells
  IC50: > 1000 nM
HCT116 cells; [1]
  viability at 1000 µM: 93%
HCT116 cells
  IC50: > 1000 nM

## CCc1c(Cc2ccnc(NS(=O)(=O)NC)c2F)cncc1Oc1ccc(Cl)cc1 [Example 83, 4-[[5-(4-chlorophenoxy)-4-ethyl-3-pyridyl]methyl]-3-fluoro-N-(methylsulfamoyl)pyridin-2-amine]
IPC298 cells
  IC50: < 10 nM
HCT116 cells
  IC50: 10 to 100 nM

## CNS(=O)(=O)Nc1nccc(Oc2cncc(Oc3ccc(C)cc3Cl)c2C)c1F [Example 84, 4-[[5-(2-chloro-4-methyl-phenoxy)-4-methyl-3-pyridyl]oxy]-3-fluoro-N-(methylsulfamoyl)pyridin-2-amine]
IPC298 cells
  IC50: < 10 nM
HCT116 cells
  IC50: 500 to 1000 nM

## CNS(=O)(=O)Nc1nccc(Cc2cncc(NC3CC4(C3)CN(C)C4)c2C)c1F [Example 85, N-[5-[[3-fluoro-2-(methylsulfamoylamino)-4-pyridyl]methyl]-4-methyl-3-pyridyl]-2-methyl-2-azaspiro[3.3]heptan-6-amine]
IPC298 cells; read-out: CTG % cell viability 100 uM IPC298.2
  viability at 100 µM: 106%
IPC298 cells
  IC50: > 1000 nM
HCT116 cells; read-out: CTG % cell viability 1000 uM HCT116.20
  viability at 1000 µM: 102%
HCT116 cells
  IC50: > 1000 nM

## CNS(=O)(=O)Nc1nccc(Cc2cncc(OCc3cccc(Cl)c3)c2C)c1F [Example 86, 4-[[5-[(3-chlorophenyl)methoxy]-4-methyl-3-pyridyl]methyl]-3-fluoro-N-(methylsulfamoyl)pyridin-2-amine]
IPC298 cells
  IC50: 10 to 100 nM
HCT116 cells
  IC50: 100 to 500 nM

## CNS(=O)(=O)Nc1nccc(Cc2cccc3c2CCCN3c2ccc(Cl)cc2F)c1F [Example 87, 4-[[1-(4-chloro-2-fluoro-phenyl)-3,4-dihydro-2H-quinolin-5-yl]methyl]-3-fluoro-N-(methylsulfamoyl)pyridin-2-amine]
IPC298 cells; [2]
  viability at 100 µM: 101%
IPC298 cells
  IC50: > 1000 nM
HCT116 cells; [1]
  viability at 1000 µM: 95%
HCT116 cells
  IC50: > 1000 nM

## CNS(=O)(=O)Nc1nccc(Cc2cncc(Nc3ccc(CC(C)C)cc3F)c2C)c1F [Example 88, 3-fluoro-4-[[5-(2-fluoro-4-isobutyl-anilino)-4-methyl-3-pyridyl]methyl]-N-(methylsulfamoyl)pyridin-2-amine]
IPC298 cells
  IC50: < 10 nM
HCT116 cells
  IC50: 100 to 500 nM

## CNS(=O)(=O)Nc1nccc(Cc2cncc(Oc3ncc(C)s3)c2C)c1F [Example 89, 3-fluoro-4-[[4-methyl-5-(5-methylthiazol-2-yl)oxy-3-pyridyl]methyl]-N-(methylsulfamoyl)pyridin-2-amine]
IPC298 cells; [2]
  viability at 100 µM: 100%
IPC298 cells
  IC50: > 1000 nM
HCT116 cells; [1]
  viability at 1000 µM: 95%
HCT116 cells
  IC50: > 1000 nM
